Assay [1] addresses T1, HaGST (recombinant rHaGST, delta-class glutathione S-transferase; GenBank EF033109 / ABK40535) (Helicoverpa armigera, UniProt A0MSN0).
T1 sequence (A0MSN0 1-220): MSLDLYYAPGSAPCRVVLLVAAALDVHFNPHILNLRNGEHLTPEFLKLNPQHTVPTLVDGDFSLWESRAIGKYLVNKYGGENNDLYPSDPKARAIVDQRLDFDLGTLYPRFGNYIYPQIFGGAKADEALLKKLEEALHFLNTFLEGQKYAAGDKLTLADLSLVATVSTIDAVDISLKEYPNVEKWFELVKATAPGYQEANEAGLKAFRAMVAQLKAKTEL

Assay [2] addresses T1, HaGST (recombinant rHaGST, delta-class glutathione S-transferase; GenBank EF033109 / ABK40535). Put plainly: GSH/CDNB conjugation assay at […] nm with purified rHaGST; Lineweaver-Burk plot. Further details: His-tagged full-length rHaGST expressed from pET-28a in E. coli BL-21 (DE-3), Ni-NTA purified; 220 residues. The class given is biochemical.

Molecules are shown by their SMILES.

Take `N[C@@H](CCC(=O)N[C@@H](CS)C(=O)NCC(=O)O)C(=O)O` [GSH, glutathione]: in assay [1], the “enzyme kinetics of purified rHaGST with variable GSH (Lineweaver-Burk), CDNB as” value is “the rHaGST activity was calculated under different concentrations of GSH”.
For the compound `C[C@@]12C(=O)OC(=O)[C@]1(C)[C@H]1CC[C@@H]2O1` [cantharidin], the IC50 in assay [2] is 12.5 µM.

As a reminder, the IC50 is the point on the concentration scale where inhibition reaches its midpoint.

The record behind these values is paper PMC3634466, “Cantharidin Impedes Activity of Glutathione S-Transferase in the Midgut of Helicoverpa armigera Hübner” (International Journal of Molecular Sciences, 2013).
